The test deals with Mast/stem cell growth factor receptor Kit (Homo sapiens, UniProt P10721). Nature of the test: Biological Assay. As for the experimental part:
Reactions were carried out in the presence of 10 μM ATP. […] The radioactive phosphorylated substrate remaining on the filter paper was measured.

Structures are written as SMILES. pIC50: −log10 of the molar value.

Chain of Mast/stem cell growth factor receptor Kit (P10721 whole entry): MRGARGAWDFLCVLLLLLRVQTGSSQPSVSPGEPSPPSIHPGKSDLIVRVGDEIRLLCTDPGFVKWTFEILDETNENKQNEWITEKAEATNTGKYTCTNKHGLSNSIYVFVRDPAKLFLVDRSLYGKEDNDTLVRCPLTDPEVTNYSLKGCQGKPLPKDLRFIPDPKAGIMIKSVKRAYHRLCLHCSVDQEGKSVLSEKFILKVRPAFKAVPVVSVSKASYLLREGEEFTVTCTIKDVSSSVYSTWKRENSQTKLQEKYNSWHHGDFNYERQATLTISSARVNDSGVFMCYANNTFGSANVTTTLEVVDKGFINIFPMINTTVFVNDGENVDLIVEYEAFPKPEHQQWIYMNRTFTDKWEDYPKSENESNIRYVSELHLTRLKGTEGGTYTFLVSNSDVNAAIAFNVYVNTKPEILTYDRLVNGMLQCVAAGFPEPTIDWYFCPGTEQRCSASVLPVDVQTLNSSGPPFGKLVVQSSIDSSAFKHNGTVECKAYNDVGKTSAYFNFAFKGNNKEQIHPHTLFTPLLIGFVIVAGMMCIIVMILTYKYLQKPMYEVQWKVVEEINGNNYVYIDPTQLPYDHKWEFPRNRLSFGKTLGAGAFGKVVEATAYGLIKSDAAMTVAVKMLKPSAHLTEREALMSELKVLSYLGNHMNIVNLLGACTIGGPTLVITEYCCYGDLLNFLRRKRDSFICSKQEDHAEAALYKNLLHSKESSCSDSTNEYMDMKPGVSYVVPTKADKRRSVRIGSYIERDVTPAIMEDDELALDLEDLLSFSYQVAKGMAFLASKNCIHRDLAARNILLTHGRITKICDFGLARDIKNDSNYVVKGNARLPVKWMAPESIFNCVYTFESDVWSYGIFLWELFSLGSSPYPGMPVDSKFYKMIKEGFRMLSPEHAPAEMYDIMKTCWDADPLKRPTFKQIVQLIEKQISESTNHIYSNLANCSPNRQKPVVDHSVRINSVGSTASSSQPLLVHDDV

`CC#CCOc1cc(Nc2ncc3ccc4ncn(C(C)C)c4c3n2)ncc1N1CCNCC1` [US20230312583, Compound I-13] had a negative logarithm of the IC50 (pIC50) of 7.03.

For the origin of these results see BindingDB's records for patent US20230312583 (Shengke Pharmaceuticals (Jiangsu), 2023).
